Measured values taken from patent US10722501B2 (BAYER AKTIENGESELLSCHAFT, priority 2016, dated 2020).
pIC50: −log10 of the molar value.

Each molecule was assayed against T1, recombinant full-length human prolyl endopeptidase (PREP) (Homo sapiens, UniProt P48147) (assay: Biochemical human prolyl endopeptidase (PREP) assay with fluorescently labelled substrate). Conditions: substrate Z-Gly-Pro-AMC 50 μM, 32° C., 60 min; some as mean values from multiple independent determinations.
T1 construct: To recombinant full-length human prolyl endopeptidase (PREP, R&D-Systems, 4308-SE); purchased R&D-Systems 4308-SE
T1 sequence (P48147 1-710): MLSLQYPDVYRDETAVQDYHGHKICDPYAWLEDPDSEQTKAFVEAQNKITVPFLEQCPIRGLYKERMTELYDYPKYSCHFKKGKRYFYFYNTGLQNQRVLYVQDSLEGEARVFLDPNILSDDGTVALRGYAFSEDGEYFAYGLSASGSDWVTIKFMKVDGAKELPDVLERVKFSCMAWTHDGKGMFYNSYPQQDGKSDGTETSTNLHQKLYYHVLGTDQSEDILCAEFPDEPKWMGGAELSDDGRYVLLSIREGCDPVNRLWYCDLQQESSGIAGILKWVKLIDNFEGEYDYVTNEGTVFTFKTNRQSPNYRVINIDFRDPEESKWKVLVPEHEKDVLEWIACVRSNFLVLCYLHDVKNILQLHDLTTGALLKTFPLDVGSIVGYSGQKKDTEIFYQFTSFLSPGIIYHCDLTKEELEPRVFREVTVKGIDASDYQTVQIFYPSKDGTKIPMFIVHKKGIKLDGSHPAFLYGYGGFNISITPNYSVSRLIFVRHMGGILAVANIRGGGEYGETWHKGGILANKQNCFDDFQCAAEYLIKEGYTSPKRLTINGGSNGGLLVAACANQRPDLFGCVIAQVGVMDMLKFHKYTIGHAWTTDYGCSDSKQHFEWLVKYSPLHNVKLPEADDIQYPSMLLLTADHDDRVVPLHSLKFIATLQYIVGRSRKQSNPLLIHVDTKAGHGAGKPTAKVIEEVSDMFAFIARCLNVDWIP
Summary of the method: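 Initial rates of fluorescence increase from 50 μM Z-Gly-Pro-AMC cleavage (ex 360/em 465 nm, 60 min, 32° C) give percent PREP activity versus no-compound control, and IC50 is interpolated. Enzyme used at 0.4 nM (final, example) in Tris pH 7.5 with EDTA, GSH, BSA and Brij-35; compounds span 1 nM to 30 μM.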
`O=C(C1CC(C(F)(F)F)Cc2nn(Cc3ccc(C(F)(F)F)nc3)c(=O)n21)N1CC[C@H](F)C1` (mixture of isomers) [Example 236, (5RS,7RS)-5-{[(3S)-3-Fluoropyrrolidin-1-yl]carbonyl}-7-(trifluoromethyl)-2-{[6-(trifluoromethyl)pyridin-3-yl]methyl}-5,6,7,8-tetrahydro[1,2,4]triazolo[4,3-a]pyridin-3(2H)-one] was tested, and the pIC50 was 8.85. `O=C([C@@H]1CCCc2nn(CC3(c4ccc(C(F)(F)F)cc4)CC3)c(=O)n21)N1CC(F)C1` [Example 527, (5S)-5-[(3-Fluoroazetidin-1-yl)carbonyl]-2-({1-[4-(trifluoromethyl)phenyl]cyclopropyl}methyl)-5,6,7,8-tetrahydro[1,2,4]triazolo[4,3-a]pyridin-3(2H)-one] showed a pIC50 of 8.92. `O=C([C@@H]1CCCc2nn(Cc3ncc(Cl)cc3Cl)c(=O)n21)N1CC(F)C1` [Example 398, (5S)-2-[(3,5-Dichloropyridin-2-yl)methyl]-5-[(3-fluoroazetidin-1-yl)carbonyl]-5,6,7,8-tetrahydro[1,2,4]triazolo[4,3-a]pyridin-3(2H)-one] showed a pIC50 of 8.92. `Cn1ccc(Cn2nc3n(c2=O)C(C(=O)N2CCC(F)(F)C2)CCC3)n1` (racemic) [Example 90, (5RS)-5-[(3,3-Difluoropyrrolidin-1-yl)carbonyl]-2-[(1-methyl-1H-pyrazol-3-yl)methyl]-5,6,7,8-tetrahydro[1,2,4]triazolo[4,3-a]pyridin-3(2H)-one] was tested, and the pIC50 was 8.01. Work on `CNC(=O)c1ccc(Cn2nc3n(c2=O)C(C(=O)N2CCCC2)CCC3)cc1` (racemic) [Example 155, N-Methyl-4-{[(5RS)-3-oxo-5-(pyrrolidin-1-ylcarbonyl)-5,6,7,8-tetrahydro[1,2,4]triazolo[4,3-a]pyridin-2(3H)-yl]methyl}benzamide] yielded a pIC50 of 6.68. Molecule `O=C(C1CC(C(F)(F)F)Cc2nn(Cc3ccnc(C(F)(F)F)c3F)c(=O)n21)N1C[C@@H](F)[C@@H](F)C1` (single isomer, unassigned) [Example 262] has a pIC50 of 6.10. Work on `Cc1ccc(Cn2nc3n(c2=O)[C@H](C(=O)N2CC(CF)C2)CCC3)cc1` [Example 146, (5S)-5-{[3-(Fluoromethyl)azetidin-1-yl]carbonyl}-2-(4-methylbenzyl)-5,6,7,8-tetrahydro[1,2,4]triazolo[4,3-a]pyridin-3(2H)-one] yielded a pIC50 of 9.03. For `CC1Cc2nn(Cc3ccc(C(F)(F)F)nc3)c(=O)n2C(C(=O)N2CC[C@H](F)C2)C1` (single isomer, unassigned) [Example 137], the pIC50 was 6.89. Work on `O=C(C1C(C(F)(F)F)CCc2nn(Cc3ccc(Cl)cn3)c(=O)n21)N1C[C@@H](F)[C@@H](F)C1` (single isomer, unassigned) [Example 301] yielded a pIC50 of 7.71. `O=C([C@@H]1CCCc2nn(Cc3ccnc(C(F)(F)F)c3)c(=O)n21)N1CCCC1` [Example 74, (5S)-5-(Pyrrolidin-1-ylcarbonyl)-2-{[2-(trifluoromethyl)pyridin-4-yl]methyl}-5,6,7,8-tetrahydro[1,2,4]triazolo[4,3-a]pyridin-3(2H)-one] gave a pIC50 of 8.32. `COc1ccc(Cn2nc3n(c2=O)[C@H](C(=O)N2CC(F)C2)CCC3)nc1` [Example 382, (5S)-5-[(3-Fluoroazetidin-1-yl)carbonyl]-2-[(5-methoxypyridin-2-yl)methyl]-5,6,7,8-tetrahydro[1,2,4]triazolo[4,3-a]pyridin-3(2H)-one] gave a pIC50 of 8.23. In the case of `O=C(C1CC(C(F)(F)F)Cc2nn(Cc3ccc(Cl)nc3)c(=O)n21)N1CCC(F)(F)C1` (single isomer, unassigned) [Example 232, (5RS,7RS)-2-[(6-Chloropyridin-3-yl)methyl]-5-[(3,3-difluoropyrrolidin-1-yl)carbonyl]-7-(trifluoromethyl)-5,6,7,8-tetrahydro[1,2,4]triazolo[4,3-a]pyridin-3(2H)-one], the pIC50 was 6.40. Work on `O=C(C1CCCc2nn(CC3CCC(C(F)(F)F)CC3)c(=O)n21)N1CCCC1` (racemic) [Example 40, (5RS)-5-(Pyrrolidin-1-ylcarbonyl)-2-{[4-(trifluoromethyl)cyclohexyl]methyl}-5,6,7,8-tetrahydro[1,2,4]triazolo[4,3-a]pyridin-3(2H)-one] yielded a pIC50 of 8.28. Molecule `Cc1ccc(Cn2nc3n(c2=O)C(C(=O)N2CCC(F)(CO)C2)CCC3)cc1` (mixture of isomers) [Example 147, (5S)-5-{[(3RS)-3-Fluoro-3-(hydroxymethyl)pyrrolidin-1-yl]carbonyl}-2-(4-methylbenzyl)-5,6,7,8-tetrahydro[1,2,4]triazolo[4,3-a]pyridin-3(2H)-one] has a pIC50 of 7.15. `O=C([C@@H]1CCCc2nn(Cc3csc(C(F)(F)F)n3)c(=O)n21)N1CC[C@H](F)C1` [Example 365, (5S)-5-{[(3S)-3-Fluoropyrrolidin-1-yl]carbonyl}-2-{[2-(trifluoromethyl)-1,3-thiazol-4-yl]methyl}-5,6,7,8-tetrahydro[1,2,4]triazolo[4,3-a]pyridin-3(2H)-one] gave a pIC50 of 8.64. For `O=C([C@@H]1CC=Cc2nn(Cc3ccc(C(F)(F)F)nc3)c(=O)n21)N1C[C@@H](F)[C@@H](F)C1` [Example 558, (5S)-5-{[(3R,4S)-3,4-Difluoropyrrolidin-1-yl]carbonyl}-2-{[6-(trifluoromethyl)pyridin-3-yl]methyl}-5,6-dihydro[1,2,4]triazolo[4,3-a]pyridin-3(2H)-one], the pIC50 was 8.72. Molecule `O=C([C@@H]1CCCc2nn(Cc3cnc(C(F)(F)F)c(Cl)c3)c(=O)n21)N1CCCC1` [Example 545, (5S)-2-{[5-Chloro-6-(trifluoromethyl)pyridin-3-yl]methyl}-5-(pyrrolidin-1-ylcarbonyl)-5,6,7,8-tetrahydro[1,2,4]triazolo[4,3-a]pyridin-3(2H)-one] has a pIC50 of 9.17. `O=C([C@@H]1CCCc2nn(Cc3cc(F)c(F)cc3F)c(=O)n21)N1CC(F)C1` [Example 491, (5S)-5-[(3-Fluoroazetidin-1-yl)carbonyl]-2-(2,4,5-trifluorobenzyl)-5,6,7,8-tetrahydro[1,2,4]triazolo[4,3-a]pyridin-3(2H)-one] gave a pIC50 of 9.36. For `Cn1nc(Cn2nc3n(c2=O)[C@H](C(=O)N2CC(F)C2)CCC3)c2cccnc21` [Example 534, (5S)-5-[(3-Fluoroazetidin-1-yl)carbonyl]-2-[(1-methyl-1H-pyrazolo[3,4-b]pyridin-3-yl)methyl]-5,6,7,8-tetrahydro[1,2,4]triazolo[4,3-a]pyridin-3(2H)-one], the pIC50 was 8.91. Molecule `O=C(C1CC(C(F)(F)F)Cc2nn(Cc3ccc(Cl)nc3)c(=O)n21)N1CCC(F)(F)C1` (single isomer, unassigned) [Example 231, (5RS,7RS)-2-[(6-Chloropyridin-3-yl)methyl]-5-[(3,3-difluoropyrrolidin-1-yl)carbonyl]-7-(trifluoromethyl)-5,6,7,8-tetrahydro[1,2,4]triazolo[4,3-a]pyridin-3(2H)-one] has a pIC50 of 7.32. With `O=C(C1CCc2nn(Cc3ccc(F)c(Cl)c3)c(=O)n21)N1CCC(F)(F)C1` (racemic) [Example 168, (5RS)-2-(3-Chloro-4-fluorobenzyl)-5-[(3,3-difluoropyrrolidin-1-yl)carbonyl]-2,5,6,7-tetrahydro-3H-pyrrolo[2,1-c][1,2,4]triazol-3-one] the pIC50 was 8.39. For `Cc1cc(Cn2nc3n(c2=O)C(C(=O)N2CC[C@H](F)C2)CCC3)on1` (mixture of isomers) [Example 416, (5RS)-5-{[(3S)-3-Fluoropyrrolidin-1-yl]carbonyl}-2-[(3-methyl-1,2-oxazol-5-yl)methyl]-5,6,7,8-tetrahydro[1,2,4]triazolo[4,3-a]pyridin-3(2H)-one], the pIC50 was 8.47. `O=C([C@@H]1CCCc2nn(Cc3cncc(Br)c3)c(=O)n21)N1CC[C@H](F)C1` [Example 509, (5S)-2-[(5-Bromopyridin-3-yl)methyl]-5-{[(3S)-3-fluoropyrrolidin-1-yl]carbonyl}-5,6,7,8-tetrahydro[1,2,4]triazolo[4,3-a]pyridin-3(2H)-one] gave a pIC50 of 9.15. For `CC1CCC(C(=O)N2CC[C@H](F)C2)n2c1nn(Cc1ccc(C(F)(F)F)nc1)c2=O` (single isomer, unassigned) [Example 221], the pIC50 was 6.01. `CCn1ccnc1Cn1nc2n(c1=O)C(C(=O)N1CCCC1)CCC2` (racemic) [Example 70, (5RS)-2-[(1-Ethyl-1H-imidazol-2-yl)methyl]-5-(pyrrolidin-1-ylcarbonyl)-5,6,7,8-tetrahydro[1,2,4]triazolo[4,3-a]pyridin-3(2H)-one] showed a pIC50 of 7.96. For `O=C([C@@H]1CCCc2nn(Cc3cccc(Cl)n3)c(=O)n21)N1CC(F)C1` [Example 384, (5S)-2-[(6-Chloropyridin-2-yl)methyl]-5-[(3-fluoroazetidin-1-yl)carbonyl]-5,6,7,8-tetrahydro[1,2,4]triazolo[4,3-a]pyridin-3(2H)-one], the pIC50 was 7.96.
